Experimental data taken from PubChem BioAssay AID330 (DTP/NCI, 2004).
“And” between values parts separate entries of the source, which are not always exact repeats. Equal entries are not always repeated. Toxic doses and inconclusive results are not listed. Rule for the calls: active = survival T/C of 150% or more; inactive = T/C below 125% in these data.

System: P388 leukemia ip, CD2F1 mice, survival T/C
Assay: NCI In Vivo Anticancer Drug Screen. Data for tumor model P388 Leukemia (intraperitoneal) in CD2F1 (CDF1) mice
Conditions: endpoint: median survival time, higher = longer survival
In short: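 Mice carrying the transplanted tumor received test compound or vehicle. Survival was recorded in each group, and the value is the treated-group measurement divided by that of the vehicle-treated control group.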

[1] = dose: 50.0 mg/kg/injection, schedule: Q01DX009 (ip), vehicle: Klucel (hydroxypropylcellulose) (HPC)
[2] = dose: 100.0 mg/kg/injection, schedule: Q01DX009 (ip), vehicle: Klucel (hydroxypropylcellulose) (HPC)
[3] = dose: 200.0 mg/kg/injection, schedule: Q01DX009 (ip), vehicle: Klucel (hydroxypropylcellulose) (HPC)
[4] = dose: 50.0 mg/kg/injection, schedule: Q01DX005 (ip), vehicle: Klucel (hydroxypropylcellulose) (HPC)
[5] = dose: 100.0 mg/kg/injection, schedule: Q01DX005 (ip), vehicle: Klucel (hydroxypropylcellulose) (HPC)
[6] = dose: 200.0 mg/kg/injection, schedule: Q01DX005 (ip), vehicle: Klucel (hydroxypropylcellulose) (HPC)

Measured: T/C

CN1CCN(c2nc3cccnc3s2)CC1
inactive: dose: 25.0 mg/kg/injection, schedule: Q04DX003 (ip), vehicle: saline with Tween-80 106 % of control | dose: 50.0 mg/kg/injection, schedule: Q04DX003 (ip), vehicle: saline with Tween-80 101 % of control | dose: 100.0 mg/kg/injection, schedule: Q04DX003 (ip), vehicle: saline with Tween-80 100 % of control

CC1=C(C)CP(=O)(c2ccccc2)C1
inactive: dose: 25.0 mg/kg/injection, schedule: Q01DX009 (ip), vehicle: saline 96 % of control | dose: 50.0 mg/kg/injection, schedule: Q01DX009 (ip), vehicle: saline 93 % of control | dose: 100.0 mg/kg/injection, schedule: Q01DX009 (ip), vehicle: saline 95 % of control | dose: 200.0 mg/kg/injection, schedule: Q01DX009 (ip), vehicle: saline 95 % of control

O=C(NNc1nc(CCl)cs1)c1ccccc1Cl
inactive: dose: 12.5 mg/kg/injection, schedule: Q01DX009 (ip), vehicle: Klucel (hydroxypropylcellulose) (HPC) 106 % of control | dose: 25.0 mg/kg/injection, schedule: Q01DX009 (ip), vehicle: Klucel (hydroxypropylcellulose) (HPC) 103 % of control and 111 % of control | [1] 103 % of control and 113 % of control | [2] 103 % of control and 107 % of control | [3] 94 % of control

CC(=O)C1=CN(C)c2ccccc2[S@@]1=O
inactive: [4] 103 % of control | [5] 100 % of control | [6] 100 % of control

C1CC[C@@]2([C@]34CCCC[C@H]3O4)O[C@H]2C1
inactive: dose: 60.0 mg/kg/injection, schedule: Q01DX005 (ip), vehicle: Klucel (hydroxypropylcellulose) (HPC) 99 % of control | dose: 120.0 mg/kg/injection, schedule: Q01DX005 (ip), vehicle: Klucel (hydroxypropylcellulose) (HPC) 98 % of control | dose: 240.0 mg/kg/injection, schedule: Q01DX005 (ip), vehicle: Klucel (hydroxypropylcellulose) (HPC) 95 % of control and 96 % of control

O=[N+]([O-])/C=C\c1ccc(/C=C/[N+](=O)[O-])cc1
inactive: dose: 1.25 mg/kg/injection, schedule: Q01DX009 (ip), vehicle: saline 103 % of control and 107 % of control | dose: 1.25 mg/kg/injection, schedule: Q01DX009 (ip), vehicle: suspension in saline 103 % of control | dose: 2.5 mg/kg/injection, schedule: Q01DX009 (ip), vehicle: saline 100 % of control and 108 % of control | dose: 2.5 mg/kg/injection, schedule: Q01DX009 (ip), vehicle: suspension in saline 116 % of control | dose: 5.0 mg/kg/injection, schedule: Q01DX009 (ip), vehicle: saline 104 % of control and 107 % of control | dose: 5.0 mg/kg/injection, schedule: Q01DX009 (ip), vehicle: suspension in saline 114 % of control | dose: 10.0 mg/kg/injection, schedule: Q01DX009 (ip), vehicle: saline 106 % of control and 116 % of control | dose: 10.0 mg/kg/injection, schedule: Q01DX009 (ip), vehicle: suspension in saline 116 % of control

O=C(O)C[N-]c1ccccc1.O=C(O)C[N-]c1ccccc1.[Ni+2]
inactive: dose: 6.25 mg/kg/injection, schedule: Q01DX009 (ip), vehicle: saline with Tween-80 86 % of control | dose: 12.5 mg/kg/injection, schedule: Q01DX009 (ip), vehicle: saline with Tween-80 91 % of control

CC1CN2CC(C)O[Si](CC[Si]34OC(C)CN(CC(C)O3)CC(C)O4)(O1)OC(C)C2 (configuration not stated)
inactive: [4] 108 % of control | [5] 106 % of control | [6] 105 % of control

CN(C)CCCN1C=CC(=C2C(=O)c3ccccc3C2=O)C=C1
inactive: [1] 88 % of control | [2] 86 % of control | [3] 97 % of control

CN(C(=O)NCCCl)C1=NC(O)(c2ccccc2)C(c2ccccc2)=N1 (configuration not stated)
inactive: dose: 100.0 mg/kg/injection, schedule: Q04DX002 (ip), vehicle: saline with Tween-80 106 % of control | dose: 200.0 mg/kg/injection, schedule: Q04DX002 (ip), vehicle: saline with Tween-80 113 % of control | dose: 400.0 mg/kg/injection, schedule: Q04DX002 (ip), vehicle: saline with Tween-80 112 % of control
